Biological target: Bcl-2 G101V (Homo sapiens, UniProt P10415, G101V)
Assay: Bcl-2 G101V inhibition, fluorescence polarization (Flu-BIM tracer) binding assay
Settings: FP; 20 nM Bcl2, 5 nM Flu-BIM, 1 h incubation; read-out: Bcl-2 G101V (FP)

Row | Structure (SMILES) | IC50 [nM]
1 | CC1(C)CCC(CN2CCN(c3ccc(C(=O)NS(=O)(=O)c4ccc(NC[C@H]5COCCO5)c([N+](=O)[O-])c4)c(Oc4cnc5[nH]ccc5c4)c3)CC2)=C(c2cc(-c3ccc(C(F)(F)F)cc3)cs2)C1 [Example 40, (S)—N-((4-(((1,4-dioxan-2-yl)methyl)amino)-3-nitrophenyl)sulfonyl)-2-((1H-pyrrolo[2,3-b]pyridin-5-yl)oxy)-4-(4-((4,4-dimethyl-2-(4-(4-(trifluoromethyl)phenyl)thiophen-2-yl)cyclohex-1-en-1-yl)methyl)piperazin-1-yl)benzamide] | 43.4
2 | CC1(C)CCC(CN2CCN(c3ccc(C(=O)NS(=O)(=O)c4ccc(NC[C@H]5CC[C@](C)(O)CC5)c([N+](=O)[O-])c4)c(Oc4cnc5[nH]ccc5c4)c3)CC2)=C(c2cc(-c3ccc(C(F)(F)F)cc3)cs2)C1 [Example 41, 2-((1H-pyrrolo[2,3-b]pyridin-5-yl)oxy)-4-(4-((4,4-dimethyl-2-(4-(4-(trifluoromethyl)phenyl)thiophen-2-yl)cyclohex-1-en-1-yl)methyl)piperazin-1-yl)-N-((4-((((1r,4r)-4-hydroxy-4-methylcyclohexyl)methyl)amino)-3-nitrophenyl)sulfonyl)benzamide] | 34.4
3 | CC1(C)CCC(CN2CCN(c3ccc(C(=O)NS(=O)(=O)c4ccc(NC[C@H]5COCCO5)c([N+](=O)[O-])c4)c(Oc4cnc5[nH]ccc5c4)c3)CC2)=C(c2cc(-c3ccc(F)cc3F)cs2)C1 [Example 42, (S)—N-((4-(((1,4-dioxan-2-yl)methyl)amino)-3-nitrophenyl)sulfonyl)-2-((1H-pyrrolo[2,3-b]pyridin-5-yl)oxy)-4-(4-((2-(4-(2,4-difluorophenyl)thiophen-2-yl)-4,4-dimethylcyclohex-1-en-1-yl)methyl)piperazin-1-yl)benzamide] | 50.7
4 | CC1(C)CCC(CN2CCN(c3ccc(C(=O)NS(=O)(=O)c4ccc(NC[C@H]5CC[C@](C)(O)CC5)c([N+](=O)[O-])c4)c(Oc4cnc5[nH]ccc5c4)c3)CC2)=C(c2cc(-c3ccc(F)cc3F)cs2)C1 [Example 43, 2-((1H-pyrrolo[2,3-b]pyridin-5-yl)oxy)-4-(4-((2-(4-(2,4-difluorophenyl)thiophen-2-yl)-4,4-dimethylcyclohex-1-en-1-yl)methyl)piperazin-1-yl)-N-((4-((((1r,4r)-4-hydroxy-4-methylcyclohexyl)methyl)amino)-3-nitrophenyl)sulfonyl)benzamide] | 33.7
5 | CC1(C)CCC(CN2CCN(c3ccc(C(=O)NS(=O)(=O)c4ccc(NC[C@H]5COCCO5)c([N+](=O)[O-])c4)c(Oc4cnc5[nH]ccc5c4)c3)CC2)=C(c2cc(-c3ccc(Cl)cc3F)cs2)C1 [Example 44, (S)—N-((4-(((1,4-dioxan-2-yl)methyl)amino)-3-nitrophenyl)sulfonyl)-2-((1H-pyrrolo[2,3-b]pyridin-5-yl)oxy)-4-(4-((2-(4-(4-chloro-2-fluorophenyl)thiophen-2-yl)-4,4-dimethylcyclohex-1-en-1-yl)methyl)piperazin-1-yl)benzamide] | 46.3
6 | CC1(C)CCC(CN2CCN(c3ccc(C(=O)NS(=O)(=O)c4ccc(NC[C@H]5CC[C@](C)(O)CC5)c([N+](=O)[O-])c4)c(Oc4cnc5[nH]ccc5c4)c3)CC2)=C(c2cc(-c3cc(F)c(F)c(F)c3)cs2)C1 [Example 45, 2-((1H-pyrrolo[2,3-b]pyridin-5-yl)oxy)-4-(4-((4,4-dimethyl-2-(4-(3,4,5-trifluorophenyl)thiophen-2-yl)cyclohex-1-en-1-yl)methyl)piperazin-1-yl)-N-((4-((((1r,4r)-4-hydroxy-4-methylcyclohexyl)methyl)amino)-3-nitrophenyl)sulfonyl)benzamide] | 49
